The assay deals with T1, human transferrin receptor (hTfR) (Homo sapiens, UniProt P02786).
T1 construct: made in house
Put plainly: Evaluation of molecular interaction between transferrin receptor (hTfR) and peptide using surface plasmon resonance (SPR). The format is binding. The procedure, abridged: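 SPR, single-cycle kinetics; hTfR dimer on NTA chip via Ni capture plus EDC/NHS coupling. Analyte peptide 100, 50, 25, 10, 5 nM. Running buffer: 10 mM HEPES pH 8.0, 150 mM NaCl, 0.05% Tween 20, 0.1% BSA, 1.0% DMSO. KD by least-squares fit.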
On the technique in general: In SPR one partner is held on a chip, and binding of the other changes the refractive index at the surface.

Where [1] appears, read: surface plasmon resonance, binding to hTfR, KD class symbol, read-out: SPR (KD value).

Where two headings read alike, the source gives them in different places. Starred links: 1 amine or outer side, 2 acyl side, 3 side chain; linkers in the order of their positions; H or OH if unused. Positions of bridges follow the written chain, without caps; N, C: chain ends. Non-standard residues stand in square brackets, D forms with d. Residues, ends and D or L forms follow the SMILES beside them. Groups on a side chain read outwards from the residue. *: point of attachment. Trp(1-CH2COOH) = N[C@@H](Cc1cn(CC(=O)O)c2ccccc12)C(=O)O; X3 = CN([C@@H](Cc1cccc(C(=O)[*:3])c1)C(=O)[*:2])[*:1]; X1 = O=C([C@H](Cc1cccc(C(=O)[*:3])c1)N[*:1])[*:2]; Phe(3-COOH) = N[C@@H](Cc1cccc(C(=O)O)c1)C(=O)O; Trp(7-aza) = N[C@@H](Cc1c[nH]c2ncccc12)C(=O)O; NH(CH2CH2O)8Me = COCCOCCOCCOCCOCCOCCOCCOCCN*; NMePhe(3-Cl) = CN[C@@H](Cc1cccc(Cl)c1)C(=O)O; Piperazinyl(4-CH2COOH) = O=C(O)CN1CCN(*)CC1; 3Pal(6-NH2) = Nc1ccc(C[C@H](N)C(=O)O)cn1; Lys(N3) = [N-]=[N+]=NCCCC[C@H](N)C(=O)O; NMeY = CN[C@@H](Cc1ccc(O)cc1)C(=O)O; NH(CH2CH2O)4Me = COCCOCCOCCOCCN*; 3Pal = N[C@@H](Cc1cccnc1)C(=O)O; 4Pal = N[C@@H](Cc1ccncc1)C(=O)O; PEG4 = NCCOCCOCCOCCOCCC(=O)O; Carboxymethyl = O=C(O)C*; CO = O=C([*:1])[*:2]

T1 sequence (P02786 89-760 limits assumed): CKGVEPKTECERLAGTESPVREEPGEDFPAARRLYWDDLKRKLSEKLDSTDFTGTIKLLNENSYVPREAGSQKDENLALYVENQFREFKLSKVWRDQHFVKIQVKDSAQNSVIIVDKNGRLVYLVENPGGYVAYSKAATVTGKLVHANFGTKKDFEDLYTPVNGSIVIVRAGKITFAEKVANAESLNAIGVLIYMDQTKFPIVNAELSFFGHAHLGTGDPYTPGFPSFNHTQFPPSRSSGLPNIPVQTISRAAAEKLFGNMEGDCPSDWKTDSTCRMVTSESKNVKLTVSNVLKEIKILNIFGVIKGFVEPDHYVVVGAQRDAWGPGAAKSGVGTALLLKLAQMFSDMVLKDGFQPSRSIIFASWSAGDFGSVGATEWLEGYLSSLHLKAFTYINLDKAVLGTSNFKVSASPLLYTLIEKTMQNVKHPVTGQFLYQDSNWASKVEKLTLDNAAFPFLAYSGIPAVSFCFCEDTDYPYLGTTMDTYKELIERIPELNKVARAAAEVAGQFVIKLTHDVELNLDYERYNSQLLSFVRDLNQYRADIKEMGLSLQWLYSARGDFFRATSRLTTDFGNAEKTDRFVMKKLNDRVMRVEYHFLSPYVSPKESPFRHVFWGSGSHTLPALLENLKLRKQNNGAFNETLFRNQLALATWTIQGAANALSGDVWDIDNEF

For `CC[C@H](C)[C@@H]1NC(=O)[C@H](Cc2ccc(OC)cc2)NC(=O)[C@H](Cc2ccc(N)nc2)NC(=O)[C@H](CC(N)=O)NC(=O)[C@H](Cc2c[nH]c3ncccc23)NC(=O)[C@H](C(C)C)NC(=O)[C@H](Cc2cccc(Cl)c2)N(C)C(=O)[C@H](C(C)C)NC(=O)[C@H](C)NC(=O)CSC[C@@H](C(=O)NCCOCCOCCOCCOCCC(N)=O)NC(=O)[C@H](Cc2ccc(O)cc2)N(C)C(=O)[C@H](Cc2ccncc2)NC(=O)[C@H](CCCCNC(=O)N2CCN(CC(=O)O)CC2)NC(=O)[C@H](CCC(=O)NCCOCCOCCOCCOCCOCCOCCOCCOC)NC(=O)[C@H]([C@@H](C)CC)NC1=O` [compound 237] ({CH2CO}-AV[NMePhe(3-Cl)]V[Trp(7-aza)]N[3Pal(6-NH2)]Y(Me)IIE(NH(CH2CH2O)8Me)K([CO-Piperazinyl(4-CH2COOH)])[4Pal][NMeY]C[PEG4]-NH2; thioether N-15), the Kd (peptide with linker, surface plasmon resonance, read-out: SPR (KD class for binding to hTfR)) is 1 to 100 nM.

For the molecule “894_3181 (AVFVWNYFIIEEFYC; cyclised or stapled)”, the SPR entry (KD class for binding to hTfR by SPR, peptide with the linker shown in the same line, 'low signal indicates no activity') was “Low signal”.

For `CC[C@H](C)[C@@H]1NC(=O)[C@H](Cc2cccnc2)NC(=O)[C@H](Cc2ccc(O)cc2)NC(=O)[C@H](CC(N)=O)NC(=O)[C@H](Cc2c[nH]c3ccccc23)NC(=O)[C@H](C(C)C)NC(=O)[C@H](Cc2cccc(Cl)c2)N(C)C(=O)[C@H](C(C)C)NC(=O)[C@H](C)NC(=O)CSC[C@@H](C(=O)NCC(=O)N[C@@H](CCCCN=[N+]=[N-])C(N)=O)NC(=O)[C@H](Cc2ccc(O)cc2)N(C)C(=O)[C@H](Cc2ccncc2)NC(=O)[C@H](CCCNC(=N)N)NC(=O)[C@H](CCCNC(=N)N)NC(=O)[C@H]([C@@H](C)CC)NC1=O` [894_3188] ({CH2CO}-AV[NMePhe(3-Cl)]VWNY[3Pal]IIRR[4Pal][NMeY]CG[Lys(N3)]-NH2; thioether N-15), the Kd (KD class for binding to hTfR by SPR, peptide with the linker shown in the same line, 'low signal indicates no activity', read-out: SPR) lay within 1 to 100 nM.

On to `CC[C@H](C)[C@@H]1NC(=O)[C@H](Cc2ccc(OC)cc2)NC(=O)[C@H](Cc2ccc(O)cc2)NC(=O)[C@H](CC(N)=O)NC(=O)[C@H](Cc2cn(CC(=O)O)c3ccccc23)NC(=O)[C@H](C(C)C)NC(=O)[C@H](Cc2cccc(Cl)c2)N(C)C(=O)[C@H](C(C)C)NC(=O)[C@H](C)NC(=O)CSC[C@@H](C(=O)NCCOCCOCCOCCOCCC(N)=O)NC(=O)[C@H](Cc2ccc(O)cc2)N(C)C(=O)[C@H](Cc2cccc(C(=O)O)c2)NC(=O)[C@H](CCC(=O)NCCOCCOCCOCCOCCOCCOCCOCCOC)NC(=O)[C@H](CCCNC(=N)N)NC(=O)[C@H]([C@@H](C)CC)NC1=O` [compound 77] ({CH2CO}-AV[NMePhe(3-Cl)]V[Trp(1-CH2COOH)]NYY(Me)IIRE(NH(CH2CH2O)8Me)[Phe(3-COOH)][NMeY]C[PEG4]-NH2; thioether N-15), for which, under setting [1], the Kd lay in the range of 1 to 100 nM.

With `CC[C@H](C)[C@@H]1NC(=O)[C@H](Cc2ccc(OCC(=O)O)cc2)NC(=O)[C@H](Cc2ccc(O)cc2)NC(=O)[C@H](CC(N)=O)NC(=O)[C@H](Cc2c[nH]c3ccccc23)NC(=O)[C@H](C(C)C)NC(=O)[C@H](Cc2cccc(Cl)c2)N(C)C(=O)[C@H](C(C)C)NC(=O)[C@H](C)NC(=O)CSC[C@@H](C(=O)NCCOCCOCCOCCOCCC(N)=O)NC(=O)[C@H](Cc2cccc(C(=O)NCCOCCOCCOCCOC)c2)N(C)C(=O)[C@H](Cc2cccc(C(=O)NCCOCCOCCOCCOC)c2)NC(=O)[C@H](CCCNC(=N)N)NC(=O)[C@H](CCC(N)=O)NC(=O)[C@H]([C@@H](C)CC)NC1=O` [compound 128] ({CH2CO}-AV[NMePhe(3-Cl)]VWNYY(Carboxymethyl)IIQR[X1](NH(CH2CH2O)4Me)[X3](NH(CH2CH2O)4Me)C[PEG4]-NH2; thioether N-15), under setting [1], the Kd is 1 to 100 nM.

As to `CC[C@H](C)[C@@H]1NC(=O)[C@H](Cc2ccc(OC)cc2)NC(=O)[C@H](Cc2ccc(O)cc2)NC(=O)[C@H](CC(N)=O)NC(=O)[C@H](Cc2cn(CC(=O)O)c3ccccc23)NC(=O)[C@H](C(C)C)NC(=O)[C@H](Cc2cccc(Cl)c2)N(C)C(=O)[C@H](C(C)C)NC(=O)[C@H](C)NC(=O)CSC[C@@H](C(=O)NCCOCCOCCOCCOCCC(N)=O)NC(=O)[C@H](Cc2ccc(O)cc2)N(C)C(=O)[C@H](Cc2ccncc2)NC(=O)[C@H](CCC(=O)NCCOCCOCCOCCOCCOCCOCCOCCOC)NC(=O)[C@H](CCCNC(=N)N)NC(=O)[C@H]([C@@H](C)CC)NC1=O` [compound 78] ({CH2CO}-AV[NMePhe(3-Cl)]V[Trp(1-CH2COOH)]NYY(Me)IIRE(NH(CH2CH2O)8Me)[4Pal][NMeY]C[PEG4]-NH2; thioether N-15), the Kd under setting [1] was 1 to 100 nM.

These data come from patent publication US20260116920A1, “HUMAN TRANSFERRIN RECEPTOR BINDING PEPTIDE” (PEPTIDREAM INC., priority 2021, published 2026).
